Assay results published in patent US20230391845A1, “GLP-1, GIP AND GLUCAGON RECEPTOR TRIPLE AGONISTS” (priority 2020, published 2023).
Entries after “also recorded” stand apart in the source; their conditions may differ. *1 amine or outer side, *2 acyl side, *3 side chain or, on linkers, in order; H or OH if unused. Where a SMILES comes first, the peptide text is derived from it. Side-chain parts run from the residue outwards. [ ]: non-standard residue; d: D form. The star is where a group is joined. C20 diacid = O=C(O)CCCCCCCCCCCCCCCCCCC(=O)*; γGlu = O=C(O)[C@H](CCC(=O)[*:2])N[*:1]; εLys = N[C@@H](CCCCN[*:1])C(=O)[*:2]; AEEA = NCCOCCOCC(=O)O; Aib = CC(C)(N)C(=O)O

Legend:
[1] = molecular target: T1, human GLP-1 receptor (Homo sapiens, UniProt P43220); assay: In vitro functional potency (CRE luciferase; whole cells), human GLP-1R; assay type: cell-based
T1 construct: expressed in transfected cells; host or cells: BHK cells (parent line BHKTS13) containing CRE luciferase
Protocol: The purpose of this example is to test the functional activity, or potency, of the compounds in vitro at the human and mouse GLP-1, GIP, and Gcg receptors. The in vitro functional potency is the measure of target receptor activation in a whole cell assay.
In vitro functional potency was determined by measuring the response of the target receptor in a reporter gene assay in individual cell lines. The assay was performed in stably transfected BHK cell lines that expresses one of the following G-protein coupled receptors: human GLP-1 receptor, human GIP receptor, human Gcg receptor, mouse GLP-1 receptor, mouse GIP receptor, or mouse Gcg receptor; and where each cell line contains the DNA for the cAMP response element (CRE) coupled to a promoter and the gene for firefly luciferase (CRE luciferase). When the respective receptor is activated, it results in the production of cAMP, which in turn results in expression of the luciferase protein. When assay incubation is completed, luciferase substrate (luciferin) is added resulting in the enzymatic conversion of luciferin to oxyluciferin and producing bioluminescence. The luminescence is measured as the readout for the assay.
The cells lines used in these assays were BHK cells with BHKTS13 as a parent cell line. The cell lines were derived from a clone containing the CRE luciferase element and were established by further transfection with the respective receptor to obtain the relevant cell line.
The cells were cultured at 37° C. with 5% CO2 in Cell Culture Medium. They were aliquoted and stored in liquid nitrogen. The cells were kept in continuous culture and were seeded out the day before each assay.
GLP-1R and GcgR Cell Culture Medium consisted of DMEM medium with 10% FBS, 500 µg/mL G418, and 300 µg/mL hygromycin. GIPR Cell Culture Medium consisted of DMEM medium with 10% FBS, 400 µg/mL G418, and 300 µg/mL hygromycin. Assay Buffer consisted of DMEM w/o phenol red, 10 mM Hepes, 1× Glutamax, 1% ovalbumin, and 0.1% Pluronic F-68.
• 1) Cells were plated at 5000 cells/well and incubated overnight in the assay plate. • 2) Cells were washed once in DPBS. • 3) Stocks of the test compounds and reference compounds in concentrations ranging from 100-300 pM were diluted 1:150 in Assay Buffer.
The data from the microtiter plate reader was first regressed in an Excel in order to calculate the x-axis, log scale concentrations based on the individual test compound's stock concentration and the dilutions of the assay. […] The software performs a non-linear regression (log(agonist) vs response). A minimum of two replicates was measured for each sample. The reported values are averages of the replicates.

[2] = Pharmacokinetic study in minipigs, i.v. administration; parameters: species or system Göttingen minipigs; details: female, Göttingen, minipig, in vivo, iv; minipigs, i.v. administration, harmonic mean; read-out: Terminal half-life t1/2 (converted)
How it was run: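 Female Göttingen minipigs (7-14 months, 16-35 kg), fasted ~18 h pre-dose to 4 h post-dose, received i.v. injections of usually 1.5-2 nmol/kg via central venous catheter. Plasma sampled up to 14 days, assayed by ELISA or LCMS; terminal half-life (harmonic mean) from non-compartmental analysis.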

[3] = Pharmacodynamic study in DIO mice, daily s.c. dosing over 13 days (body weight, food intake); assay type: in vivo, C57BL/6J male mice; details: for Absolute BW (grams) Day 0: Day 0 (baseline); for Cumulative food intake (grams) Day 13: mean ± SEM, n = 2; for reduction in body weight (in words) / reduction in food intake (in words): daily s.c. dosing over 13 days, compared to vehicle
Protocol: (§1) The purpose of this example is to assess the in vivo effect of selected triple agonists on pharmacodynamic parameters in diet-induced obese (DIO) mice. The animals were treated once daily via subcutaneous injection with a liquid formulation of the triple agonist to be tested to assess effects on body weight, foot intake, and glucose tolerance.
(§2) C57BL/6J male mice were purchased from Jackson Laboratories at approximately 8 weeks of age. Mice were group housed and fed a high-fat, high-sugar diet from Research Diets (D12331). Mice were maintained on this diet for 12 weeks prior to initializing the pharmacology studies. Mice exceeding a measured body weight of 50 grams were considered diet-induced obese (DIO) and included in pharmacology studies. Mice were exposed to a controlled 12 h:12 h light:dark cycle at ambient room temperature (22° C.) with ab libitum access to food and water. Studies were approved by and performed according to the guidelines of the Institutional Animal Care and Use Committee of the University of Cincinnati.
(§3) All compounds in the study were formulated in the following buffer: 50 mM phosphate; 70 mM sodium chloride; 0.05% Tween-80, pH 7.4. Dosing solutions were formulated in glass vials and stored at 2-8° C. Dosing solutions were brought to room temperature before dosing and returned to 2-8° C. after dosing.
(§4) The animals were grouped to receive treatment as follows: Vehicle or GLP-1/GIP/Gcg receptor triple agonists as described herein, where vehicle is 50 mM phosphate, 70 mM sodium chloride; 0.05% (v/v) Tween-80, pH 7.4. The test compounds were dissolved in the vehicle, to stock concentrations of […], then diluted 50- to 200-fold in the vehicle to achieve the desired dosing solution concentrations. Animals were dosed subcutaneously once daily in the morning for each day of treatment with dosing solution at a volume of 2-5 μL per gram of body weight as necessary to achieve the desired dose (e.g. 0.3 nmol/kg, 1.0 nmol/kg, or 3.0 nmol/kg).
Body weight (BW) and food intake were measured immediately prior to dosing each day. The percent change in body was calculated individually for each mouse based on initial body weight prior to the first injection.

[4] = IPGTT (intraperitoneal glucose tolerance test) in DIO mice; assay type: in vivo, C57BL/6J male mice; details: for iAUC, IPGTT (min*mg/dL) Day 14: i.p. glucose 2 g/kg, baseline subtracted AUC
Protocol: as §1, §2, §3
as §4, with “DIO mice were distributed into groups (n=8 per group) such that statistical variations in the mean and standard deviations of fat mass and body weight were minimized between groups. The animals” for “The animals”
On the day of the glucose tolerance test, animals were fasted for 4 h. Food was removed and animals were transferred to fresh cages. Animals had access to water but not to food. Tail blood glucose levels were measured, and mice were injected (t=0) with an intraperitoneal (i.p.) glucose load of 2 g/kg (200 mg/ml glucose solution, dose volume 10 ml/kg). Tail blood glucose levels were measured at times 0, 15, 30, 60, 90, 120 minutes following the i.p. glucose load. Stratification of the animals during the IPGTT was such that for example two mice from group 1 are dosed followed by two mice from group 2, 3, 4, before the next two mice from group 1, 2, 3 etc. were handled. This was to allow for equal distribution of “time of day” throughout all groups.

T1 sequence (P43220 24-463): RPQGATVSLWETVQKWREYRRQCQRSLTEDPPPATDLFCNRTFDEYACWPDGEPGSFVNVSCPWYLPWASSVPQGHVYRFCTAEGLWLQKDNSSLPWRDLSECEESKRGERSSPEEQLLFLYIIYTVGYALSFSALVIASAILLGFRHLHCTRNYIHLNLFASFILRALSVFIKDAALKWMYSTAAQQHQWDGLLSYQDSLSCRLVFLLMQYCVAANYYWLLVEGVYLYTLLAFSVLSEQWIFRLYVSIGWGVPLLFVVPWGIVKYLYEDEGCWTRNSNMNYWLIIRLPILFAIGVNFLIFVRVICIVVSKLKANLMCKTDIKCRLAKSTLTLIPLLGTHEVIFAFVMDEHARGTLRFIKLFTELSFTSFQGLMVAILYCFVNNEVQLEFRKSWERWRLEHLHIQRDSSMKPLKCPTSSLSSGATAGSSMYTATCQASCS

SMILES	EC50 [1] [pM]	half-life [2] [h]	Absolute BW (grams) Day 0 ([3]; 1.0 nmol/kg group) [grams]	Absolute BW (grams) Day 13 ([3]; 1.0 nmol/kg s.c. once daily) [grams]	Change in BW (%) Day 13 ([3]; 1.0 nmol/kg s.c. once daily) [%]	Cumulative food intake (grams) Day 13 ([3]; 1.0 nmol/kg s.c. once daily) [grams]	reduction in body weight (in words) [3]	reduction in food intake (in words) [3]	iAUC, IPGTT (min*mg/dL) Day 14 ([4]; 1.0 nmol/kg s.c. once daily) [mg·min/dL]	Absolute BW (grams) Day 0 ([3]; 0.3 nmol/kg group) [grams]	Absolute BW (grams) Day 13 ([3]; 0.3 nmol/kg s.c. once daily) [grams]	Change in BW (%) Day 13 ([3]; 0.3 nmol/kg s.c. once daily) [%]	Cumulative food intake (grams) Day 13 ([3]; 0.3 nmol/kg s.c. once daily) [grams]	Absolute BW (grams) Day 0 ([3]; 3.0 nmol/kg group) [grams]	Absolute BW (grams) Day 13 ([3]; 3.0 nmol/kg s.c. once daily) [grams]	Change in BW (%) Day 13 ([3]; 3.0 nmol/kg s.c. once daily) [%]	Cumulative food intake (grams) Day 13 ([3]; 3.0 nmol/kg s.c. once daily) [grams]	iAUC, IPGTT (min*mg/dL) Day 14 ([4]; 0.3 nmol/kg s.c. once daily) [mg·min/dL]	glucose tolerance compared to vehicle (in words) ([4]; 1.0 nmol/kg and 3.0 nmol/kg doses)	iAUC, IPGTT (min*mg/dL) Day 14 ([4]; 3.0 nmol/kg s.c. once daily) [mg·min/dL]
CC(C)C[C@H](NC(=O)[C@H](CC(C)C)NC(=O)[C@H](Cc1c[nH]c2ccccc12)NC(=O)[C@H](CCC(N)=O)NC(=O)[C@@H](NC(=O)[C@H](Cc1ccccc1)NC(=O)[C@H](CCC(=O)O)NC(=O)C(C)(C)NC(=O)[C@H](C)NC(=O)[C@H](C)NC(=O)[C@H](CCC(N)=O)NC(=O)[C@H](CCCCNC(=O)[C@@H](N)CCCCNC(=O)[C@@H](N)CCCCNC(=O)CC[C@H](NC(=O)CCCCCCCCCCCCCCCCCCC(=O)O)C(=O)O)NC(=O)[C@H](CCC(=O)O)NC(=O)[C@H](CC(C)C)NC(=O)[C@H](Cc1ccc(O)cc1)NC(=O)[C@H](Cc1ccc(O)cc1)NC(=O)[C@H](CO)NC(=O)[C@H](Cc1ccc(O)cc1)NC(=O)[C@H](CC(=O)O)NC(=O)[C@H](CO)NC(=O)[C@@H](NC(=O)[C@H](Cc1ccccc1)NC(=O)[C@@H](NC(=O)CNC(=O)[C@H](Cc1c[nH]cn1)NC(=O)C(C)(C)NC(=O)[C@@H](N)Cc1c[nH]cn1)[C@@H](C)O)[C@@H](C)O)C(C)C)C(=O)N[C@@H](CCC(=O)O)C(=O)NCC(=O)NCC(=O)N1CCC[C@H]1C(=O)N[C@@H](CO)C(=O)N[C@@H](CO)C(=O)NCC(=O)N[C@@H](C)C(=O)N1CCC[C@H]1C(=O)N1CCC[C@H]1C(=O)N1CCC[C@H]1C(=O)N[C@@H](CO)C(N)=O [Compound No. 26] (H-H[Aib]HGTFTSDYSYYLEK([εLys-εLys-γGlu-C20 diacid])QAA[Aib]EFVQWLLEGGPSSGAPPPS-NH2; N-terminus assumed)	3.1	80	60.7 ± 1.9	51.6 ± 2.2	−15.6 ± 0.9	20.1 ± 3.4	superior reduction	superior reduction	8789 ± 1521											
CC[C@H](C)[C@H](NC(=O)[C@H](CO)NC(=O)[C@H](Cc1ccc(O)cc1)NC(=O)[C@H](CC(=O)O)NC(=O)[C@H](CO)NC(=O)[C@@H](NC(=O)[C@H](Cc1ccccc1)NC(=O)[C@@H](NC(=O)CNC(=O)[C@H](Cc1c[nH]cn1)NC(=O)C(C)(C)NC(=O)[C@@H](N)Cc1c[nH]cn1)[C@@H](C)O)[C@@H](C)O)C(=O)N[C@@H](Cc1ccc(O)cc1)C(=O)N[C@@H](CC(C)C)C(=O)N[C@@H](CCC(=O)O)C(=O)N[C@@H](CCCCNC(=O)COCCOCCNC(=O)COCCOCCNC(=O)CC[C@H](NC(=O)CCCCCCCCCCCCCCCCCCC(=O)O)C(=O)O)C(=O)N[C@@H](CCC(N)=O)C(=O)N[C@@H](C)C(=O)N[C@@H](C)C(=O)NC(C)(C)C(=O)N[C@@H](CCC(=O)O)C(=O)N[C@@H](Cc1ccccc1)C(=O)N[C@H](C(=O)N[C@@H](CCC(N)=O)C(=O)N[C@@H](Cc1c[nH]c2ccccc12)C(=O)N[C@@H](CC(C)C)C(=O)N[C@@H](CC(C)C)C(=O)N[C@@H](CCC(=O)O)C(=O)NCC(=O)NCC(=O)N1CCC[C@H]1C(=O)N[C@@H](CO)C(=O)N[C@@H](CO)C(=O)NCC(=O)N[C@@H](C)C(=O)N1CCC[C@H]1C(=O)N1CCC[C@H]1C(=O)N1CCC[C@H]1C(=O)N[C@@H](CO)C(N)=O)C(C)C [Compound No. 44] (H-H[Aib]HGTFTSDYSIYLEK([AEEA-AEEA-γGlu-C20 diacid])QAA[Aib]EFVQWLLEGGPSSGAPPPS-NH2; N-terminus assumed)	1.8		60.8 ± 1.1	52.7 ± 1.3	−13.4 ± 0.9	24.8 ± 1.8	superior reduction; also recorded: dose-dependent effect	superior reduction; also recorded: dose-dependent effect	14606 ± 2410	59.2 ± 1.2	56.9 ± 1.5	−3.9 ± 1.1	28.0 ± 0.6	60.6 ± 1.1	43.1 ± 1.8	−29.1 ± 2.3	12.4 ± 1.5	25356 ± 4338	improved glucose tolerance	15161 ± 2257
